As a reminder, the inhibition is how much of the control response was suppressed. Read a low inhibition as little suppression.

The record followed here is US20220409643A1, “ROR Gamma T Inhibitors and Topical Uses Thereof” (Dermira, inc., priority 2019, published 2022).

The subject of the first assay is IL17A. The assay is described as follows: skin Resident Immune Cell Assay (sRICA), Th17 model, IL17A protein in media. The following applies: 100 uM solution in 1% DMSO/OD applied topically to human skin; media collected 24 hours after Th17 activation. Type of assay: cell-based. The procedure:
A skin Resident Immune Cell Assay (sRICA) was used to test compounds for reduction of IL-17A protein upregulation in the Th17 sRICA model. In this model, human surgical skin waste was cultured in a transwell system, with the dermis in contact with cell culture media and the stratum corneum exposed to air. To perform the assay, each human skin sample was defatted and dermatomed to 750μm. Next, 8 mm punch biopsies were obtained and placed in a membrane transwell. The transwells were inserted into culture wells with complete media, and a cocktail of cytokines and antibodies were added to promote skin resident immune cell polarization.
RORγt inhibitors were prepared as a 100 uM solution in 1% DMSO/OD. […] of the prepared topical solution was applied to sRICA wells prepared for topical drug evaluation. Drugs were allowed to penetrate the skin overnight, for up to 24 hours prior to Th17 activation. Media was collected 24 hours after Th17 activation for IL17A protein assessment. IL17A protein was evaluated using the Quanterix IL17A detection kit on the SiMoA platform (via CRO Translational Biosciences). There was significant upregulation of IL17A with Th17 activation. Each study was normalized to the % max of IL17A production (i.e. the average IL17A concentration of Th17 activated skin alone) was set to 100%, all other values (untreated no activation and treated samples) were obtained as a percentage of this. […]
The compound `COc1ccc2c(c1)CCN(C(=O)Cc1cc(O)no1)[C@H]2C(=O)Nc1ccc(C(C)(C)C)c(F)c1` [(1R)-N-(4-tert-butyl-3-fluorophenyl)-2-((3-hydroxy-1,2-oxazol-5-yl)acetyl)-6-methoxy-1,2,3,4-tetrahydroisoquinoline-1-carboxamide] showed an inhibition at 100 µM of 23.6%.

The compound `COCc1ccc2c(c1)CCN(C(=O)Cc1cc(O)no1)[C@H]2C(=O)Nc1ccc(C(C)(C)C)c(F)c1` [(1R)-N-(4-tert-butyl-3-fluorophenyl)-2-((3-hydroxy-1,2-oxazol-5-yl)acetyl)-6-methoxymethyl-1,2,3,4-tetrahydroisoquinoline-1-carboxamide] had an inhibition at 100 µM of 60.8%. The compound `COCc1ccc2c(c1)CCN(C(=O)Cc1cc(O)no1)[C@H]2C(=O)Nc1cc(F)c2c(c1)CCC2(C)C` [(1R)-N-(7-fluoro-1,1-dimethyl-2,3-dihydro-1H-inden-5-yl)-2-((3-hydroxy-1,2-oxazol-5-yl)acetyl)-6-(methoxymethyl)-1,2,3,4-tetrahydroisoquinoline-1-carboxamide] yielded an inhibition at 100 µM of 50.5%. Compound `COc1ccc2c(c1)CCN(C(=O)Cc1cc(O)no1)[C@H]2C(=O)Nc1cc(F)c2c(c1)CCC2(C)C` [(1R)-N-(7-fluoro-1,1-dimethyl-2,3-dihydro-1H-inden-5-yl)-2-((3-hydroxy-1,2-oxazol-5-yl)acetyl)-6-methoxy-1,2,3,4-tetrahydroisoquinoline-1-carboxamide] returned an inhibition at 100 µM of 33.9%.

The compound `COCc1ccc2c(c1)CCN(C(=O)c1cc(O)no1)[C@H]2C(=O)Nc1cc(F)c2c(c1)CCC2(C)C` [(1R)-N-(7-fluoro-1,1-dimethyl-2,3-dihydro-1H-inden-5-yl)-2-((3-hydroxy-1,2-oxazol-5-yl)carbonyl)-6-(methoxymethyl)-1,2,3,4-tetrahydroisoquinoline-1-carboxamide] yielded an inhibition at 100 µM of 59.1%.

The compound `COCc1ccc([C@@H](NC(=O)Cc2cc(O)no2)C(=O)Nc2cc(F)c(C(C)(C)C)c(F)c2)cc1` [(2R)-N-(4-tert-butyl-3,5-difluorophenyl)-2-(((3-hydroxy-1,2-oxazol-5-yl)acetyl)amino)-2-(4-(methoxymethyl)phenyl)acetamide] gave an inhibition at 100 µM of 26.3%.

The compound `COCc1ccc([C@@H](NC(=O)Cc2nnc(C)o2)C(=O)Nc2ccc(C(C)(C)C)c(F)c2)cc1` [(2R)-N-(4-tert-butyl-3-fluorophenyl)-2-(4-(methoxymethyl)phenyl)-2-(((5-methyl-1,3,4-oxadiazol-2-yl)acetyl)amino)acetamide] showed an inhibition at 100 µM of 62%. For the compound `COCc1ccc([C@@H](NC(=O)Cc2cc(O)no2)C(=O)Nc2ccc(C(C)(C)C)c(F)c2)cc1` [(2R)-N-(4-tert-butyl-3-fluorophenyl)-2-(((3-hydroxy-1,2-oxazol-5-yl)acetyl)amino)-2-(4-(methoxymethyl)phenyl)acetamide], the inhibition at 100 µM stood at 68.1%. `CC(C)n1c(=O)n(CC2CC2)c(=O)c2cc(NC(=O)N3CCC[C@@H](NC(=O)c4ccccc4)C3)ccc21` [(3R)-3-(benzoylamino)-N-(3-(cyclopropylmethyl)-1-isopropyl-2,4-dioxo-1,2,3,4-tetrahydroquinazolin-6-yl)piperidine-1-carboxamide] had an inhibition at 100 µM of 53.2%. On the same count and under the same terms, next, `CC(C)n1c(=O)n(CC2CC(F)(F)C2)c(=O)c2cc(NC(=O)N3CCC[C@@H](N4Cc5ccccc5C4=O)C3)c(F)cc21` [(3R)-N-(3-((3,3-difluorocyclobutyl)-methyl)-7-fluoro-1-isopropyl-2,4-dioxo-1,2,3,4-tetrahydro-quinazolin-6-yl)-3-(1-oxo-1,3-dihydro-2H-isoindol-2-yl)-piperidine-1-carboxamide]: 73.1%; `CC(C)n1c(=O)n(CC2CC2)c(=O)c2cc(NC(=O)N3CCC[C@@H](NC(=O)c4cc(F)ccc4F)C3)c(F)cc21` [(3R)-N-(3-(cyclopropylmethyl)-7-fluoro-1-isopropyl-2,4-dioxo-1,2,3,4-tetrahydroquinazolin-6-yl)-3-((2,5-difluorobenzoyl)amino)-piperidine-1-carboxamide]: 44.2%; `COCc1ccc([C@@H](NC(=O)[C@H]2CNC(=O)C2)C(=O)Nc2cc(F)c(C(C)(C)C)c(F)c2)cc1` [(3R)-N-((1R)-2-((4-tert-butyl-3,5-difluorophenyl)amino)-1-(4-(methoxymethyl)phenyl)-2-oxoethyl)-5-oxopyrrolidine-3-carboxamide]: 63.1%. With `COCc1ccc([C@@H](NC(=O)[C@H]2CNC(=O)C2)C(=O)Nc2ccc(C(C)(C)C)c(F)c2)cc1` [(3R)-N-((1R)-2-((4-tert-butyl-3-fluorophenyl)amino)-1-(4-(methoxymethyl)phenyl)-2-oxoethyl)-5-oxopyrrolidine-3-carboxamide], the inhibition at 100 µM was determined as 74.1%.

Still in this assay, the particulars now being: Homo sapiens, 24 h, 100 uM solution in 1% DMSO/OD applied topically to human skin; media collected 24 hours after Th17 activation.
In turn, `COCc1ccc([C@@H](NC(=O)Cn2ccc(=O)[nH]c2=O)C(=O)Nc2ccc([Si](C)(C)C)c(F)c2)cc1` [(2R)-2-(((2,4-dioxo-3,4-dihydropyrimidin-1(2H)-yl)acetyl)amino)-N-(3-fluoro-4-(trimethylsilyl)phenyl)-2-(4-(methoxymethyl)phenyl)acetamide] yielded an inhibition at 100 µM of 68.6%. On the same count and under the same terms, next, `COCc1ccc([C@@H](NC(=O)CN2C(=O)CNC2=O)C(=O)Nc2ccc([Si](C)(C)C)c(F)c2)cc1` [(2R)-2-(((2,5-dioxoimidazolidin-1-yl)acetyl)amino)-N-(3-fluoro-4-(trimethylsilyl)phenyl)-2-(4-(methoxymethyl)phenyl)acetamide]: 36.3%; `COCc1ccc([C@@H](NC(=O)Cc2nnc(C)o2)C(=O)Nc2cc(F)c([Si](C)(C)C)cc2F)cc1` [(2R)-N-(2,5-difluoro-4-(trimethylsilyl)phenyl)-2-(4-(methoxymethyl)phenyl)-2-(((5-methyl-1,3,4-oxadiazol-2-yl)acetyl)amino)acetamide]: 75.7%; `COCc1ccc([C@@H](NC(=O)Cn2nc(C)ccc2=O)C(=O)Nc2cc(F)c([Si](C)(C)C)c(F)c2)cc1` [(2R)-N-(3,5-difluoro-4-(trimethylsilyl)phenyl)-2-(4-(methoxymethyl)phenyl)-2-(((3-methyl-6-oxopyridazin-1(6H)-yl)acetyl)amino)acetamide]: 38.7%. Still for that read-out and setting: as for `COCc1ccc([C@@H](NC(=O)Cc2nnc(C)o2)C(=O)Nc2cc(F)c([Si](C)(C)C)c(F)c2)cc1` [(2R)-N-(3,5-difluoro-4-(trimethylsilyl)phenyl)-2-(4-(methoxymethyl)phenyl)-2-(((5-methyl-1,3,4-oxadiazol-2-yl)acetyl)amino)acetamide], the figure is 60.8%; as for `COCc1ccc([C@@H](NC(=O)Cn2cnccc2=O)C(=O)Nc2cc(F)c([Si](C)(C)C)c(F)c2)cc1` [(2R)-N-(3,5-difluoro-4-(trimethylsilyl)phenyl)-2-(4-(methoxymethyl)phenyl)-2-(((6-oxopyrimidin-1(6H)-yl)acetyl)amino)acetamide], 80%. For the compound `COCc1ccc([C@@H](NC(=O)Cc2cc(O)no2)C(=O)Nc2cc(F)c([Si](C)(C)C)c(F)c2)cc1` [(2R)-N-(3,5-difluoro-4-(trimethylsilyl)phenyl)-2-(((3-hydroxy-1,2-oxazol-5-yl)acetyl)amino)-2-(4-(methoxymethyl)phenyl)acetamide], the inhibition at 100 µM amounted to 53.9%.

The compound `COCc1ccc([C@@H](NC(=O)Cc2nnc(C)o2)C(=O)Nc2ccc([Si](C)(C)C)c(F)c2)cc1` [(2R)-N-(3-fluoro-4-(trimethylsilyl)phenyl)-2-(4-(methoxymethyl)phenyl)-2-(((5-methyl-1,3,4-oxadiazol-2-yl)acetyl)amino)acetamide] showed an inhibition at 100 µM of 35.5%. In the case of `COCc1ccc([C@@H](NC(=O)CS(C)(=O)=O)C(=O)Nc2ccc([Si](C)(C)C)c(F)c2)cc1` [(2R)-N-(3-fluoro-4-(trimethylsilyl)phenyl)-2-(4-(methoxymethyl)phenyl)-2-(((methylsulfonyl)acetyl)amino)acetamide], the inhibition at 100 µM was 31.3%.

Compound `COCc1ccc([C@@H](NC(=O)[C@H]2CNC(=O)C2)C(=O)Nc2cc(F)c([Si](C)(C)C)c(F)c2)cc1` [(3R)-N-((1R)-2-((3,5-difluoro-4-(trimethylsilyl)phenyl)amino)-1-(4-(methoxymethyl)phenyl)-2-oxoethyl)-5-oxopyrrolidine-3-carboxamide] had an inhibition at 100 µM of 63%. `COc1ccc([C@@H](NC(=O)[C@H]2CNC(=O)C2)C(=O)Nc2ccc([Si](C)(C)C)c(F)c2)cc1` [(3R)-N-((1R)-2-((3-fluoro-4-(trimethylsilyl)phenyl)amino)-1-(4-(methoxy)phenyl)-2-oxoethyl)-5-oxopyrrolidine-3-carboxamide] displayed an inhibition at 100 µM of 65.2%. Same read-out and setting: as for `COc1ccc([C@@H](NC(=O)N2CC[C@@H](O)C2)C(=O)Nc2ccc([Si](C)(C)C)c(F)c2)cc1` [(3R)-N-((1R)-2-((3-fluoro-4-(trimethylsilyl)phenyl)amino)-1-(4-methoxyphenyl)-2-oxoethyl)-3-hydroxypyrrolidine-1-carboxamide], the figure is 46.9%; as for `Cn1ncc2cc(C(NC(=O)[C@@H]3CNC(=O)C3)C(=O)Nc3ccc([Si](C)(C)C)c(F)c3)ccc21` (stereo partly drawn) [(3S)-N-(2-((3-fluoro-4-(trimethylsilyl)phenyl)amino)-1-(1-methyl-1H-indazol-5-yl)-2-oxoethyl)-5-oxopyrrolidine-3-carboxamide], 58.3%.
